# Results taken from US8772499B2, “TRPV3 modulators” (AbbVie Inc., priority 2011, dated 2014).
# Read-outs that look alike come from different tables or passages of the source.
# Experiments:
# human TRPV3 = molecular target: T1, human TRPV3 (Homo sapiens, UniProt Q8NET8); assay: In vitro antagonism of recombinant human TRPV3 activation (FLIPR Tetra calcium assay); type: cell-based; conditions: HEK293 cells stably expressing human TRPV3, agonist 2-APB at 80 μM
# T1 construct: expressed in transfected cells
# T1 sequence (Q8NET8 1-790): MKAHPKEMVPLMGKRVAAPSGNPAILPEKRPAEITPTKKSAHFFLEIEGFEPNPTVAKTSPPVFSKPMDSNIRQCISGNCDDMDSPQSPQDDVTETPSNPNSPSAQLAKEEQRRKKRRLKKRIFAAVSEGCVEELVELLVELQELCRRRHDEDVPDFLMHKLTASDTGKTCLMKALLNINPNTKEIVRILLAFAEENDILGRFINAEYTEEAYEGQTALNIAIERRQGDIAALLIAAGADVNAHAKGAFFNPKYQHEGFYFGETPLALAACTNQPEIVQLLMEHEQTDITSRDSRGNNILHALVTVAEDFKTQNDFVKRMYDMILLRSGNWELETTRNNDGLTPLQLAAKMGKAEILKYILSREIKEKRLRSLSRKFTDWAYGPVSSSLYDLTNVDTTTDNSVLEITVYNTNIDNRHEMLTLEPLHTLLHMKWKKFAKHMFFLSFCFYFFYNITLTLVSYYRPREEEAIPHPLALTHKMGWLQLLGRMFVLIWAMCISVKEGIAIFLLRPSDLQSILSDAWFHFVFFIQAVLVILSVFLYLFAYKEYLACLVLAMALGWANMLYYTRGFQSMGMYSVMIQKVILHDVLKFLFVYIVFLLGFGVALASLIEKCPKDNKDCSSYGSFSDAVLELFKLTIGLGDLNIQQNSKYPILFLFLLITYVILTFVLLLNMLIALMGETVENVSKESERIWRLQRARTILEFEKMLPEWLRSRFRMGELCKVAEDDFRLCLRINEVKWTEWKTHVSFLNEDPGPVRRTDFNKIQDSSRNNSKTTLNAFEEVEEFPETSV
# In short: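 HEK293 cells stably expressing human TRPV3, loaded with Calcium-4 dye for 90–120 min, received compound in DPBS, then 80 μM 2-APB (EC80) 3 min later. Max-minus-min fluorescence expressed as % of 2-APB response without antagonist; IC50 values mostly averages of n≥2 runs.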
# [1] = In vitro human microsomal stability assay; type: in vitro ADME; conditions: human, microsomes, 0.5 h, 0.5 μM, pH 7.4
# In short: (§1)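 Test compounds were incubated at 37° C. with Sprague-Dawley rat liver microsomes or with human liver microsomes. NADPH was supplied as cofactor and was also added to the time-zero plates.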
# [2] = In vitro rat microsomal stability assay; type: in vitro ADME, rat (Sprague-Dawley); conditions: Sprague-Dawley, rat, microsomes, 0.5 h, 0.5 μM, pH 7.4
# In short: as §1
# [3] = actual measured value shown parenthetically, in most cases average of at least two runs, read-out: IC50
SMILES,IC50 (human TRPV3; [3]),HUMAN MICROSOMAL STABILITY (% REMAINING AFTER 30 MINUTES) [1],RAT MICROSOMAL STABILITY (% REMAINING AFTER 30 MINUTES) [2],"IC50 (human TRPV3; reported range, read-out: IC50 (range class))"
"O/N=C(\c1ccccn1)C1(c2ccc(Cl)c(Cl)c2)CCC1 [Example 230, (Z)-[1-(3,4-dichlorophenyl)cyclobutyl](pyridin-2-yl)methanone oxime]",> 10 µM,33%,30%,–
"O[C@H](c1ccccn1)C1(c2ccc(Cl)c(Cl)c2)CC1 [Example 231, (S)-[1-(3,4-dichlorophenyl)cyclopropyl](pyridin-2-yl)methanol]",0.54 µM,4.0%,17%,–
"OC(c1ccccn1)C1(c2cccc(OC(F)(F)F)c2)CC2(C1)OCCO2 (stereo not shown) [Example 235, pyridin-2-yl{2-[3-(trifluoromethoxy)phenyl]-5,8-dioxaspiro[3.4]oct-2-yl}-methanol]",3.32 µM,20%,<0.01%,–
"O=C1CC(c2cccc(OC(F)(F)F)c2)(C(O)c2ccccn2)C1 (stereo not shown) [Example 237, 3-[hydroxy(pyridin-2-yl)methyl]-3-[3-(trifluoromethoxy)phenyl]-cyclobutanone]",3.66 µM,51%,50%,–
"OC(c1ccccn1)C1(c2cccc(C(F)(F)F)c2)CC2(C1)OCCO2 (stereo not shown) [Example 242, pyridin-2-yl{2-[3-(trifluoromethyl)phenyl]-5,8-dioxaspiro[3.4]oct-2-yl}-methanol]",5.1 µM,45%,<0.01%,–
"O=C1CC(c2cccc(C(F)(F)F)c2)(C(O)c2ccccn2)C1 (stereo not shown) [Example 245, 3-[hydroxy(pyridin-2-yl)methyl]-3-[3-(trifluoromethyl)phenyl]-cyclobutanone]",3.65 µM,57%,72%,–
"ON=C1CC(c2ccc(OC(F)(F)F)cc2)([C@H](O)c2ccccn2)C1 (stereo partly drawn) [Example 248, (S)-{3-(hydroxyimino)-1-[4-(trifluoromethoxy)phenyl]cyclobutyl}(pyridin-2-yl)methanol]",1.17 µM,70%,29%,–
"CON=C1CC(c2ccc(OC(F)(F)F)cc2)([C@H](O)c2ccccn2)C1 (stereo partly drawn) [Example 249, (S)-{3-(methoxyimino)-1-[4-(trifluoromethoxy)phenyl]cyclobutyl}(pyridin-2-yl)methanol]",3.93 µM,61%,3.2%,–
"OC(c1ccccn1)C1(c2ccc(F)c(Cl)c2)CC2(C1)OCCO2 (stereo not shown) [Example 255, [2-(3-chloro-4-fluorophenyl)-5,8-dioxaspiro[3.4]oct-2-yl](pyridin-2-yl)-methanol]",5.49 µM,54%,<0.01%,–
"O=C1CC(c2ccc(F)c(Cl)c2)(C(O)c2ccccn2)C1 (stereo not shown) [Example 258, 3-(3-chloro-4-fluorophenyl)-3-[hydroxy(pyridin-2-yl)methyl]cyclobutanone]",11 µM,70%,53%,–
"O[C@H](c1ccccn1)[C@]1(c2cccc(C(F)(F)F)c2)C[C@H](O)C1 [Example 259, cis-3-[(S)-hydroxy(pyridin-2-yl)methyl]-3-[3-(trifluoromethyl)phenyl]-cyclobutanol]",0.47 µM,76%,73%,–
"O[C@H](c1ccccn1)[C@]1(c2cccc(C(F)(F)F)c2)C[C@@H](O)C1 [Example 264, trans-3-[(S)-hydroxy(pyridin-2-yl)methyl]-3-[3-(trifluoromethyl)phenyl]-cyclobutanol]",0.23 µM,56%,59%,–

# The next lines start with the values.
IC50 (human TRPV3; [3]),HUMAN MICROSOMAL STABILITY (% REMAINING AFTER 30 MINUTES) [1],RAT MICROSOMAL STABILITY (% REMAINING AFTER 30 MINUTES) [2],"IC50 (human TRPV3; reported range, read-out: IC50 (range class))",SMILES
2.82 µM,>85%,34%,–,"N[C@H]1CCC[C@@H]1[C@H](O)C1(c2ccc(Cl)cc2)CCC1 [Example 225, (S)-[(1S,2S)-2-aminocyclopentyl][1-(4-chlorophenyl)cyclobutyl]methanol]"
0.79 µM,>85%,<0.01%,–,"N[C@H]1CCC[C@H]1[C@@H](O)C1(c2ccccc2F)CCC1 [Example 226, (R)-[(1R,2S)-2-aminocyclopentyl][1-(2-fluorophenyl)cyclobutyl]methanol]"
0.5 µM,>85%,42%,–,"N[C@@H]1CCC[C@H]1[C@@H](O)C1(c2cccc(C(F)(F)F)c2)CCC1 [Example 227, (R)-[(1R,2R)-2-aminocyclopentyl]{1-[3-(trifluoromethyl)phenyl]-cyclobutyl}methanol]"
4.58 µM,>85%,80%,–,"N[C@H]1CCC[C@H]1[C@@H](O)C1(c2ccc(OC(F)(F)F)cc2)CCC1 [Example 229, (R)-[(1R,2S)-2-aminocyclopentyl]{1-[4-(trifluoromethoxy)phenyl]-cyclobutyl}methanol]"
5.36 µM,19%,23%,–,"OC(c1ccccn1)C1(c2cccc(C(F)(F)F)n2)CCC1 (stereo not shown) [Example 234, pyridin-2-yl{1-[6-(trifluoromethyl)pyridin-2-yl]cyclobutyl}methanol]"
3.91 µM,7.1%,21%,–,"O[C@H](c1ccccn1)C1(c2cccc(C(F)(F)F)n2)CCC1 [Example 238, (S)-pyridin-2-yl{1-[6-(trifluoromethyl)pyridin-2-yl]cyclobutyl}methanol]"
0.71 µM,50%,38%,–,"O[C@H](c1ccccn1)C1(c2ccnc(C(F)(F)F)c2)CCC1 [Example 240, (S)-pyridin-2-yl{1-[2-(trifluoromethyl)pyridin-4-yl]cyclobutyl}methanol]"
> 20 µM,71%,59%,> 20 µM,"OC(c1ccccn1)C1(C2(O)CCOC2)CCC1 (stereo not shown) [Example 246, 3-{1-[hydroxy(pyridin-2-yl)methyl]cyclobutyl}tetrahydrofuran-3-ol]"
3.4 µM,0.21%,0.017%,–,"Cc1ccccc1CC1(C(O)c2ccccn2)CCC1 (stereo not shown) [Example 253, [1-(2-methylbenzyl)cyclobutyl](pyridin-2-yl)methanol]"
4.22 µM,1.1%,0.57%,–,"OC(c1ccccn1)C1(Cc2cccc(F)c2)CCC1 (stereo not shown) [Example 254, [1-(3-fluorobenzyl)cyclobutyl](pyridin-2-yl)methanol]"
5.32 µM,12%,<0.01%,–,"OC(c1ccccn1)C1(C2=CCC(F)(F)CC2)CCC1 (stereo not shown) [Example 260, [1-(4,4-difluorocyclohex-1-en-1-yl)cyclobutyl](pyridin-2-yl)methanol]"
1.27 µM,0.01%,<0.01%,–,"OC(c1ccccn1)C1(C2=CCCC(C(F)(F)F)C2)CCC1 (stereo not shown) [Example 261, pyridin-2-yl{1-[5-(trifluoromethyl)cyclohex-1-en-1-yl]cyclobutyl}methanol]"
5.64 µM,43%,0.059%,–,"CC(C)(C)OC(=O)N1CCC(C2(C(O)c3ccccn3)CCC2)C1 (stereo not shown) [Example 265, tert-butyl 3-{1-[hydroxy(pyridin-2-yl)methyl]cyclobutyl}pyrrolidine-1-carboxylate]"
2.31 µM,46%,0.14%,–,"OC(c1ccccn1)C1(c2nc3ccccc3s2)CCC1 (stereo not shown) [Example 266, [1-(1,3-benzothiazol-2-yl)cyclobutyl](pyridin-2-yl)methanol]"
